Read-outs that look alike come from different tables or passages of the source.
Target: T1, ShHTL7 (Striga hermonthica, UniProt A0A0M3PNA2)
T1 sequence (A0A0M3PNA2 1-271): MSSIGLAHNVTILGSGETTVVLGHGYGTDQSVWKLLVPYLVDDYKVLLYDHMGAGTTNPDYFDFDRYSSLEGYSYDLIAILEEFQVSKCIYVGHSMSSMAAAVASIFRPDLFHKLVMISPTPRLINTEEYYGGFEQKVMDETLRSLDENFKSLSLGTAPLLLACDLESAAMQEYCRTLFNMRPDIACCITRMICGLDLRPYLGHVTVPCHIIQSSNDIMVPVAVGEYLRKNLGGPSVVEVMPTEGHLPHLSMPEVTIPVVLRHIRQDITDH
Experiment: in vitro yoshimulactone green (YLG) fluorescence competition assay
Assay type: biochemical

Compound	IC50 [nM]	IC50 (read-out: IC50) [nM]
CC1=CC(O/C=C2/C(=O)OC3c4ccccc4CC23)OC1=O (racemic) [rac-GR24]	319 ± 32	
CC1=CC(O/C=C2/C(=O)OC3c4cc(Br)ccc4CC23)OC1=O (stereo not shown) [7BrGR24, 7-bromo-GR24]		521 ± 87
CC1=CC(O/C=C2/C(=O)OC3c4cc(F)ccc4CC23)OC1=O (stereo not shown) [7FGR24, 7-fluoro-GR24]		189 ± 12
CC1=C[C@H](O/C=C2/C(=O)O[C@@H]3c4ccccc4C[C@H]23)OC1=O [(+)-GR24]	248 ± 32	

Reference: publication PMC8484532, “Synthesis and Evaluation of New Halogenated GR24 Analogs as Germination Promotors for Orobanche cumana” (Frontiers in Plant Science, 2021)
